Laboratory results from patent US11905260B1, “N′-(1-naphthoyloxy)-2-(benzo[d]oxazol-2-yl)acetimidamide as an antimicrobial compound” (KING FAISAL UNIVERSITY, priority 2023, dated 2024).

Key:
[1] = test system: Chrysosporium keratinophilum; test: agar plate disc-diffusion, antifungal activity by inhibition zone; assay type: cell-based; details: Sabouraud's dextrose agar, 72 hours
Protocol: (§1) The agar plate disc-diffusion method was applied. […] The discs were then placed onto the surface of agar plates (nutrient agar for bacteria and Sabouraud's dextrose agar for fungi) seeded with the test organism. Each plate contained 15 mL of the agar medium, previously seeded with 0.2 mL of the broth culture of each organism pregrown for 18 hours. The plates were incubated at 37° C. for 48 hours, and 72 hours for fungi. The inhibition zones was measured in mm. Discs impregnated with DMSO were used as a control, and its inhibition zone was subtracted from the tested compound actual inhibition zone.

[2] = test system: Aspergillus flavus; test: as above; assay type: cell-based; details: Sabouraud's dextrose agar, 72 hours
Protocol: as §1

[3] = test system: Bacillus cereus; test: agar plate disc-diffusion, antibacterial activity by inhibition zone; assay type: cell-based; details: nutrient agar, 37° C., 48 hours
Protocol: as §1

[4] = test system: Escherichia coli; test: as above; assay type: cell-based; details: nutrient agar, 37° C., 48 hours
Protocol: as §1

[5] = test system: Pseudomonas aeruginosa; test: as above; assay type: cell-based; details: nutrient agar, 37° C., 48 hours
Protocol: as §1

[6] = test system: Staphylococcus aureus; test: as above; assay type: cell-based; details: nutrient agar, 37° C., 48 hours
Protocol: as §1

[7] = test system: different microbes; test: antimicrobial activity, overall statement; assay type: cell-based; details: summary in words
Protocol: The agar plate disc-diffusion method was applied. Sterilized filter papers (6 mm in diameter) were wetted with 10 μL of a solution N′-(1-naphthoyloxy)-2-(benzo[d]oxazol-2-yl)acetimidamide (3) to be tested, containing 10 mg/mL in DMSO, and the discs were allowed to air dry. The discs were then placed onto the surface of agar plates (nutrient agar for bacteria and Sabouraud's dextrose agar for fungi) seeded with the test organism. Each plate contained 15 mL of the agar medium, previously seeded with 0.2 mL of the broth culture of each organism pregrown for 18 hours. The plates were incubated at 37° C. for 48 hours, and 72 hours for fungi. The inhibition zones was measured in mm. Discs impregnated with DMSO were used as a control, and its inhibition zone was subtracted from the tested compound actual inhibition zone.

[8] = A = concentration of comp. = 10,000 μL
[9] = B = concentration of comp. = 30,000 μL
[10] = C = concentration of comp. = 50,000 μL

## N/C(Cc1nc2ccccc2o1)=N\OC(=O)c1cccc2ccccc12 [compound 3, N′-(1-naphthoyloxy)-2-(benzo[d]oxazol-2-yl)acetimidamide]
[1]; [8]
  inhibition zone, Chrysosporium keratinophilum: 27 mm
[1]; [9]
  inhibition zone, Chrysosporium keratinophilum: 30 mm
[1]; [10]
  inhibition zone, Chrysosporium keratinophilum: 51 mm
[2]; [8]
  inhibition zone, Aspergillus flavus: 24 mm
[2]; [9]
  inhibition zone, Aspergillus flavus: 26 mm
[2]; C =
  inhibition zone, Aspergillus flavus: 37 mm
other
  melting point: 131 to 132 °C
[3]; [8]
  inhibition zone, Bacillus Cereus: 23 mm
[3]; [9]
  inhibition zone, Bacillus Cereus: 27 mm
[3]; [10]
  inhibition zone, Bacillus Cereus: 36 mm
[4]; [8]
  inhibition zone, Escherichia coli: 27 mm
[4]; [9]
  inhibition zone, Escherichia coli: 34 mm
[4]; [10]
  inhibition zone, Escherichia coli: 51 mm
[5]; [8]
  inhibition zone, Pseudomonas aeruginosa: 22 mm
[5]; [9]
  inhibition zone, Pseudomonas aeruginosa: 24 mm
[5]; [10]
  inhibition zone, Pseudomonas aeruginosa: 38 mm
[6]; [8]
  inhibition zone, Staphylococcus aureus: 26 mm
[6]; [9]
  inhibition zone, Staphylococcus aureus: 30 mm
[6]; [10]
  inhibition zone, Staphylococcus aureus: 38 mm
[7]
  antimicrobial activities against different microbes: excellent antimicrobial activities
